Read-outs that look alike come from different tables or passages of the source.
Legend:
[1] = cited from earlier work
uricase = biological target: T1, uricase (Cyberlindnera jadinii, UniProt P78609); test: Stability of uricase at 60° C. (enzyme activity recovery, optical assay) with preservative and additives; assay type: biochemical; conditions: pH 8.0
T1 construct: purchased Sigma U0880
T1 sequence (P78609 1-303): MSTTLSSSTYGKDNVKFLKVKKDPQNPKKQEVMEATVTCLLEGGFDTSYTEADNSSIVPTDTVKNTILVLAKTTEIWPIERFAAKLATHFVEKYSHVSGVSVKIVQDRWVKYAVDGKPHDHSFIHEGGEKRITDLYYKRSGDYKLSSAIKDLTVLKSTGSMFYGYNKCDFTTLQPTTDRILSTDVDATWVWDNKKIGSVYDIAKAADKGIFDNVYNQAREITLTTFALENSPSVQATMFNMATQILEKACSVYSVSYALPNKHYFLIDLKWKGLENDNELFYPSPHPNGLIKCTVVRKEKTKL
Procedure: Uricase was obtained from Sigma (U0880). The enzyme was formulated at 100 μg/ml. Measurements of enzyme activity were performed on a 96-well plate using an optical assay: 10 μl of the formulation was mixed with […] (borate buffer 25 mM, pH 8.5) and 50 μL substrate (sodium urate 2 mM). The mixture was equilibrated at room temperature for about 5 min. After 5 min, the following reagents were added in this particular order to each sample (the first reagent must be added at exactly 5 min, the timing of the other reagents addition is less crucial): 50 μl of citrate/phosphate buffer (0.5 M. pH 4.0); 15 μL of TMB (3 mg/mL, dissolved in DMSO) then 15 μL of lactoperoxidase (1 mg/mL, dissolved in water). The resulting solution was mixed thoroughly and absorbance was read at 630 nm using a plate reader. Optical density was calibrated using a range of concentrations of a reference enzyme solution. All measurements were carried out in triplicates and average value was recorded. Stability of enzyme was found in the preliminary experiments to be optimal at pH around 8.0, with minimal effect of ionic strength on the stability. The preservation of the enzyme activity was studied in a background formulation containing 10 mM histidine and 300 mM 1,2-propanediol, adjusted to pH 8. […] The effect of the stabilizing excipients was studied by comparing the stability of uricase in the solution containing the preservative only with that in the solution containing both the preservative and the stabilizing component. The concentration of the additives tested was selected based on their solubility in aqueous solutions.

[2] = biological target: human growth hormone (hGH) (Homo sapiens, UniProt P01241); test: Formation of high molecular weight species (HMWS) in aqueous hGH solutions at 40° C., size-exclusion HPLC; assay type: physicochemical; conditions: 10 mM benzoate anion, background solutions 1 and 2, 40° C.
Sequence of human growth hormone (hGH) (P01241 27-217): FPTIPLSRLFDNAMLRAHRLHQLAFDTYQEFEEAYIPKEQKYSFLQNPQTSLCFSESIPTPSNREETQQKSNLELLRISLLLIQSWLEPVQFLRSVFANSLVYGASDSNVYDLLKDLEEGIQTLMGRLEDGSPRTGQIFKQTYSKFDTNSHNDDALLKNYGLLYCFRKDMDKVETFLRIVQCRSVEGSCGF
Procedure: Formation of high molecular weight species (HMWS) was followed in aqueous solutions of hGH (15 mg/mL) using the following size-exclusion HPLC method: The mobile phase was prepared by mixing 97 parts (v/v) of 63 mM sodium phosphate (pH 7.0) with 3 parts (v/v) of propan-2-ol. The mobile phase was filtered prior to its use. The liquid chromatograph (Agilent 1100 series) was equipped with a 214 nm detector, guard column and a 7.8×300 mm BioSep SEC-S2000 column. The flow rate was maintained at 0.6 ml/min. 15 μl of aqueous samples of hGH were injected. The percentage of HMS was expressed as the ratio of the total area of all peaks with shorter elution time than the monomeric form of hGH versus the total peak area, ignoring peaks corresponding the excipients. The hGH solutions were incubated at 40° C. and assessed for the presence of HMWS at specific timepoints. In addition, the samples were assessed by eye for signs of visible precipitation.

[3] = test system: horseradish peroxidase (HRP); test: Stability of horseradish peroxidase (HRP) at 60° C. (enzyme activity recovery, optical assay) with preservative and additives; assay type: biochemical
Procedure: HRP was obtained from Sigma (P8250), The enzyme was formulated at 0.5 mg/ml. Measurements of enzyme activity were performed on a 96-well plate using an optical assay: 20 μl of the formulation was mixed with 180 μl enzyme diluent solution (1.82 mM ABTS, 28 mM hydrogen peroxide in 0.1M sodium phosphate buffer pH 7.0). The resulting solution was mixed thoroughly and absorbance was read at 630 nm using a plate reader after 5 min. Optical density was calibrated using a range of concentrations of a reference enzyme solution. All measurements were carried out in triplicates and average value was recorded. Stability of enzyme was found in the preliminary experiments to be optimal at pH around 7.0 and relatively independent of ionic strength. The preservation of the enzyme activity was studied in background formulations containing 10 mM TRIS and 1,2-propanediol (300 mM) at pH 7.0. With the exception of control solutions, the solutions contained m-cresol (30 mM). The effect of the stabilizing excipients was studied by comparing the stability of HRP in the solution containing the preservative only with that in the solution containing both the preservative and the stabilizing component. The concentration of the additives tested was selected based on their solubility in aqueous solutions.

For `O=C(O)c1ccc2ccccc2c1` [2-naphthoic acid], the “pKa value(s) of carboxylate group(s)” value ([1]; first or only value given) is given as 4.17.
For `O=C(O)c1cc(O)c(O)c(O)c1` [3,4,5-trihydroxybenzoic acid], the “pKa value(s) of carboxylate group(s)” value ([1]; first or only value given) is listed as 4.41.
In the case of `COc1cc(C(=O)O)ccc1O` [4-hydroxy-3-methoxybenzoic acid], the “pKa value(s) of carboxylate group(s)” value ([1]; first or only value given) is given as 4.5.
In the case of `OCc1ccccc1` [Benzyl alcohol], the “Effect on stability of uricase at 60° C.” value (uricase) is reported as “impairment of stability”.
For `O=C(O)C1CCCCC1` [Cyclohexane carboxylic acid, reference compound], the “Effect on stability of uricase at 60° C.” value (uricase) was “increase in the destabilising effect”.
In the case of `Oc1ccccc1` [Phenol], the “Effect on stability of uricase at 60° C.” value (uricase) is reported as “impairment of stability”.
With `O=C([O-])c1ccccc1.[K+]` [benzoate anion, potassium benzoate] the “Effect on rate of HMWS formation” value [2] was “lower rate of HMWS formation”.
In the case of `O=C(O)/C=C\c1ccccc1` [cis-cinnamic acid], the “pKa value(s) of carboxylate group(s)” value ([1]; first or only value given) is listed as 3.89.
For `O=C(O)Cc1c[nH]c2ccccc12` [indole-3-acetic acid], the “pKa value(s) of carboxylate group(s)” value ([1]; first or only value given) is given as 4.75.
With `Cc1cccc(O)c1` [m-Cresol] the “Effect on stability of HRP at 60° C.” value ([3]; 60° C., pH 7.0) was “slight impairment of stability”.
In the case of `O=C(O)c1ccccc1C(=O)O` [phthalic acid], the “pKa value(s) of carboxylate group(s)” value ([1]; second value printed (second carboxylate group)) is listed as 5.28.
With “HRP: HRP obtained from Sigma (P8250), formulated at 0.5 mg/ml” the “pH of optimal stability of enzyme” value ([3]; preliminary experiments) was “around 7.0”.

— patent US10925965B2, “Protein formulations with increased stability” (Arecor Limited, priority 2010, dated 2021)
